Measurements as given in patent publication US20150125889A1, “IN VITRO DETECTION OF MICROORGANISMS WITH AZOREDUCTASE ACTIVITY” (BIOMÉRIEUX, priority 2012, published 2015).

Columns and labels:
Test in all cases: Reduction of azo substrates over 24 hours at 35° C., microtitration plate (Example 1)
Type in all cases: cell-based
Candida albicans = test system: Candida albicans; parameters: key to RED (substrate reduced or not): RED indicates whether the substrate is reduced (Y) or not (N); RED indicates whether the substrate is reduced (Y) or not (N); key to Co (growth, absorbance at 660 nm) / Decol (substrate decolourized, decrease in absorbance) / Fluo (fluorescence multiplied by 2 relative to substrate-free control): The symbol “+” means good growth/decolourization/significant increase in fluorescence; The symbol “+/−” means difficult growth; The symbol “−” means that there is no growth/decolourization/significant increase in fluorescence; settings: substrate 35 mg/l
Description: (§1) Reduction of the “azo” function of the substrates listed in Table I by the species listed in Table II, each species being represented by a strain, is tested in a microtitration plate.
(§2) The reaction medium consists of: • Trypcase soya broth • Substrate 35 mg/l • 0.5 MacFarland inoculum
(§3) The reduction of the substrate and the growth of the microorganisms are monitored using an Infinite® M200 Tecan microplate reader at 35° C. over 24 hours.
(§4) The growth is monitored by the absorbance at 660 nm and the reduction of the substrates by absorbance and fluorescence at the specific wavelengths indicated in Table III.
(§5) The substrate is considered as reduced by the microorganisms when the substrate is decolourized (monitored by the decrease in absorbance) (Decol) and/or when the fluorescence of the substrate is multiplied by 2 relative to the base fluorescence of a substrate-free control (Fluo). The growth is indicated by Co. The symbol “+” means good growth/decolourization/significant increase in fluorescence. The symbol “+/−” means difficult growth. The symbol “−” means that there is no growth/decolourization/significant increase in fluorescence. RED indicates whether the substrate is reduced (Y) or not (N).

Cronobacter muytjensii = test system: Cronobacter muytjensii; parameters: key to RED (substrate reduced or not): RED indicates whether the substrate is reduced (Y) or not (N); RED indicates whether the substrate is reduced (Y) or not (N); key to Co (growth, absorbance at 660 nm) / Decol (substrate decolourized, decrease in absorbance) / Fluo (fluorescence multiplied by 2 relative to substrate-free control): The symbol “+” means good growth/decolourization/significant increase in fluorescence; The symbol “+/−” means difficult growth; The symbol “−” means that there is no growth/decolourization/significant increase in fluorescence; settings: E. muytjensii, substrate 35 mg/l
Description: as §1, §2, §3, §4, §5

Escherichia coli = test system: Escherichia coli; parameters: key to RED (substrate reduced or not): RED indicates whether the substrate is reduced (Y) or not (N); RED indicates whether the substrate is reduced (Y) or not (N); key to Co (growth, absorbance at 660 nm) / Decol (substrate decolourized, decrease in absorbance) / Fluo (fluorescence multiplied by 2 relative to substrate-free control): The symbol “+” means good growth/decolourization/significant increase in fluorescence; The symbol “+/−” means difficult growth; The symbol “−” means that there is no growth/decolourization/significant increase in fluorescence; settings: E. coli, substrate 35 mg/l
Description: as §1, §2, §3, §4, §5

Geotrichum candidum = test system: Geotrichum candidum; parameters: key to RED (substrate reduced or not): RED indicates whether the substrate is reduced (Y) or not (N); RED indicates whether the substrate is reduced (Y) or not (N); key to Co (growth, absorbance at 660 nm) / Decol (substrate decolourized, decrease in absorbance) / Fluo (fluorescence multiplied by 2 relative to substrate-free control): The symbol “+” means good growth/decolourization/significant increase in fluorescence; The symbol “+/−” means difficult growth; The symbol “−” means that there is no growth/decolourization/significant increase in fluorescence; settings: G. candidum, substrate 35 mg/l
Description: as §1, §2, §3, §4, §5

Kocuria rosea = test system: Kocuria rosea; parameters: key to RED (substrate reduced or not): RED indicates whether the substrate is reduced (Y) or not (N); RED indicates whether the substrate is reduced (Y) or not (N); key to Co (growth, absorbance at 660 nm) / Decol (substrate decolourized, decrease in absorbance) / Fluo (fluorescence multiplied by 2 relative to substrate-free control): The symbol “+” means good growth/decolourization/significant increase in fluorescence; The symbol “+/−” means difficult growth; The symbol “−” means that there is no growth/decolourization/significant increase in fluorescence; settings: K. rosea, substrate 35 mg/l
Description: as §1, §2, §3, §4, §5

Pseudomonas aeruginosa = test system: Pseudomonas aeruginosa; parameters: key to RED (substrate reduced or not): RED indicates whether the substrate is reduced (Y) or not (N); RED indicates whether the substrate is reduced (Y) or not (N); key to Co (growth, absorbance at 660 nm) / Decol (substrate decolourized, decrease in absorbance) / Fluo (fluorescence multiplied by 2 relative to substrate-free control): The symbol “+” means good growth/decolourization/significant increase in fluorescence; The symbol “+/−” means difficult growth; The symbol “−” means that there is no growth/decolourization/significant increase in fluorescence; settings: P. aeruginosa, substrate 35 mg/l
Description: as §1, §2, §3, §4, §5

Staphylococcus aureus = test system: Staphylococcus aureus; parameters: key to RED (substrate reduced or not): RED indicates whether the substrate is reduced (Y) or not (N); RED indicates whether the substrate is reduced (Y) or not (N); key to Co (growth, absorbance at 660 nm) / Decol (substrate decolourized, decrease in absorbance) / Fluo (fluorescence multiplied by 2 relative to substrate-free control): The symbol “+” means good growth/decolourization/significant increase in fluorescence; The symbol “+/−” means difficult growth; The symbol “−” means that there is no growth/decolourization/significant increase in fluorescence; settings: S. aureus, substrate 35 mg/l
Description: as §1, §2, §3, §4, §5

[1] = test system: Staphylococcus epidermidis; parameters: key to RED (substrate reduced or not): RED indicates whether the substrate is reduced (Y) or not (N); RED indicates whether the substrate is reduced (Y) or not (N); key to Co (growth, absorbance at 660 nm) / Decol (substrate decolourized, decrease in absorbance) / Fluo (fluorescence multiplied by 2 relative to substrate-free control): The symbol “+” means good growth/decolourization/significant increase in fluorescence; The symbol “+/−” means difficult growth; The symbol “−” means that there is no growth/decolourization/significant increase in fluorescence; settings: S. epidermidis, substrate 35 mg/l
Description: as §1, §2, §3, §4, §5

Acinetobacter baumanii = test system: Acinetobacter baumanii; parameters: key to RED (substrate reduced or not): RED indicates whether the substrate is reduced (Y) or not (N); RED indicates whether the substrate is reduced (Y) or not (N); key to Decol (substrate decolourized, decrease in absorbance) / Fluo (fluorescence multiplied by 2 relative to substrate-free control) / Co (growth, absorbance at 660 nm): The symbol “+” means good growth/decolourization/significant increase in fluorescence; The symbol “+/−” means difficult growth; The symbol “−” means that there is no growth/decolourization/significant increase in fluorescence; settings: A. baumannii, substrate 35 mg/l
Description: as §1, §2, §3, §4, §5

Enterococcus faecalis = test system: Enterococcus faecalis; parameters: key to RED (substrate reduced or not): RED indicates whether the substrate is reduced (Y) or not (N); RED indicates whether the substrate is reduced (Y) or not (N); key to Decol (substrate decolourized, decrease in absorbance) / Fluo (fluorescence multiplied by 2 relative to substrate-free control) / Co (growth, absorbance at 660 nm): The symbol “+” means good growth/decolourization/significant increase in fluorescence; The symbol “+/−” means difficult growth; The symbol “−” means that there is no growth/decolourization/significant increase in fluorescence; settings: E. faecalis, substrate 35 mg/l
Description: as §1, §2, §3, §4, §5

## O=C(O)c1ccccc1/N=N/c1cc(Cl)c(O)c(Cl)c1 [2-(4-Hydroxy-3,5-dichlorophenylazo)benzoic acid]
Candida albicans
  Co (growth, absorbance at 660 nm): +
  Decol (substrate decolourized, decrease in absorbance): −
  Fluo (fluorescence multiplied by 2 relative to substrate-free control): −
  RED (substrate reduced or not): N
Cronobacter muytjensii
  Co (growth, absorbance at 660 nm): +
  Decol (substrate decolourized, decrease in absorbance): +
  Fluo (fluorescence multiplied by 2 relative to substrate-free control): +
  RED (substrate reduced or not): Y
Escherichia coli
  Co (growth, absorbance at 660 nm): +
  Decol (substrate decolourized, decrease in absorbance): +
  Fluo (fluorescence multiplied by 2 relative to substrate-free control): +
  RED (substrate reduced or not): Y
Geotrichum candidum
  Co (growth, absorbance at 660 nm): +
  Decol (substrate decolourized, decrease in absorbance): +
  Fluo (fluorescence multiplied by 2 relative to substrate-free control): +
  RED (substrate reduced or not): Y
Kocuria rosea
  Co (growth, absorbance at 660 nm): −
  Decol (substrate decolourized, decrease in absorbance): −
  Fluo (fluorescence multiplied by 2 relative to substrate-free control): −
Pseudomonas aeruginosa
  Co (growth, absorbance at 660 nm): +
  Decol (substrate decolourized, decrease in absorbance): −
  Fluo (fluorescence multiplied by 2 relative to substrate-free control): +
  RED (substrate reduced or not): Y
Staphylococcus aureus
  Co (growth, absorbance at 660 nm): +
  Decol (substrate decolourized, decrease in absorbance): +
  Fluo (fluorescence multiplied by 2 relative to substrate-free control): +
  RED (substrate reduced or not): Y
[1]
  Co (growth, absorbance at 660 nm): +
  Decol (substrate decolourized, decrease in absorbance): +
  Fluo (fluorescence multiplied by 2 relative to substrate-free control): +
  RED (substrate reduced or not): Y
Acinetobacter baumanii
  Co (growth, absorbance at 660 nm): +
  Decol (substrate decolourized, decrease in absorbance): +
  Fluo (fluorescence multiplied by 2 relative to substrate-free control): +
  RED (substrate reduced or not): Y
Enterococcus faecalis
  Co (growth, absorbance at 660 nm): +
  Decol (substrate decolourized, decrease in absorbance): +
  Fluo (fluorescence multiplied by 2 relative to substrate-free control): +
  RED (substrate reduced or not): Y

## CC(=O)Oc1ccc(/N=N/c2ccccc2C(=O)O)cc1 [2-(4-acetoxyphenylazo)benzoic acid, 2-(4-Acetoxyphenylazo)benzoic acid]
Candida albicans
  Co (growth, absorbance at 660 nm): +
  Decol (substrate decolourized, decrease in absorbance): −
  Fluo (fluorescence multiplied by 2 relative to substrate-free control): −
  RED (substrate reduced or not): N
Cronobacter muytjensii
  Co (growth, absorbance at 660 nm): +
  Decol (substrate decolourized, decrease in absorbance): +
  Fluo (fluorescence multiplied by 2 relative to substrate-free control): +
  RED (substrate reduced or not): Y
Escherichia coli
  Co (growth, absorbance at 660 nm): +
  Decol (substrate decolourized, decrease in absorbance): +
  Fluo (fluorescence multiplied by 2 relative to substrate-free control): +
  RED (substrate reduced or not): Y
Geotrichum candidum
  Co (growth, absorbance at 660 nm): +
  Decol (substrate decolourized, decrease in absorbance): +
  Fluo (fluorescence multiplied by 2 relative to substrate-free control): +
  RED (substrate reduced or not): Y
Kocuria rosea
  Co (growth, absorbance at 660 nm): −
  Decol (substrate decolourized, decrease in absorbance): −
  Fluo (fluorescence multiplied by 2 relative to substrate-free control): −
Pseudomonas aeruginosa
  Co (growth, absorbance at 660 nm): +
  Decol (substrate decolourized, decrease in absorbance): −
  Fluo (fluorescence multiplied by 2 relative to substrate-free control): −
  RED (substrate reduced or not): N
Staphylococcus aureus
  Co (growth, absorbance at 660 nm): +
  Decol (substrate decolourized, decrease in absorbance): +
  Fluo (fluorescence multiplied by 2 relative to substrate-free control): +
  RED (substrate reduced or not): Y
[1]
  Co (growth, absorbance at 660 nm): +
  Decol (substrate decolourized, decrease in absorbance): +
  Fluo (fluorescence multiplied by 2 relative to substrate-free control): +
  RED (substrate reduced or not): Y
Acinetobacter baumanii
  Co (growth, absorbance at 660 nm): +
  Decol (substrate decolourized, decrease in absorbance): +
  Fluo (fluorescence multiplied by 2 relative to substrate-free control): +
  RED (substrate reduced or not): Y
Enterococcus faecalis
  Co (growth, absorbance at 660 nm): +
  Decol (substrate decolourized, decrease in absorbance): +
  Fluo (fluorescence multiplied by 2 relative to substrate-free control): +
  RED (substrate reduced or not): Y
